Patent US20080317723A1, “LYMPHATIC ENDOTHELIAL CELLS MATERIALS AND METHODS” (VEGENICS LIMITED, priority 2001, published 2008)

B1: VEGF-C156S: VEGFR-3 specific mutant form of VEGF-C, cysteine 156 changed into serine; recombinant human (Thr103 to Ile225) (protein, UniProt P49767 103-225, looked up, variant C156S)
chain: TEETIKFAAAHYNTEILKSIDNEWRKTQCMPREVCIDVGKEFGVATNTFFKPPSVSVYRCGGCCNSEGLQCMNTSTSYLSKTLFEITVPLSQGPKPVTISFANHTSCRCMSKLDVYRQVHSII

What was measured:
Type in all cases: cell-based, human
[1] = tested on: VEGFR-3 expressing lymphatic endothelial cells; experiment: Culture and proliferation (PCNA) of isolated VEGFR-3 positive lymphatic endothelial cells; conditions: complete medium with 5% serum supplemented with VEGF 10 ng/ml or VEGF-C 100 ng/ml
Protocol: In order to compare the effects of the VEGFs on the survival of lymphatic versus blood vascular endothelial cells, specific antibodies and magnetic microbeads were used to isolate and to culture the VEGFR-3 positive and negative cells. Briefly, in this protocol, three separate sets of VEGFR-3 expressing lymphatic endothelial cells were cultured: a first set was cultured in complete medium containing 5% serum, the second set was cultured in complete medium containing 5% serum and supplemented with VEGF (10 ng/ml,) and the third set was cultured in complete medium containing 5% serum supplemented with VEGF-C (100 ng/ml). The VEGFR-3 positive cells were grown for five days after sorting in serum or supplemented with VEGFC and then stained for podoplanin and proliferating cell nuclear antigen (PCNA). The nuclei were stained with the Hoechst fluorochrome. If supplemented with VEGF-C or VEGF, the cells were stained for PCNA. Immunofluorescence double-staining of non-sorted cells or VEGFR-3 negative and VEGFR-3 positive cell populations with antibodies against podoplanin or VEGFR-3 also was performed.

HMVE cells = experiment: Annexin-V staining of serum-starved HMVE cells with podoplanin co-staining; conditions: 72 hours serum-free medium; podoplanin positive vs negative cells, FIG. 3
Protocol: FIG. 3. Quantitation of the Annexin-V positive cells (% of adherent cells) in the podoplanin positive and negative cell populations after 72 hours of serum starvation. Data represent mean values from five counted areas (×400) (mean±s.d.).
Analysis of endothelial cell apoptosis. For the apoptosis assay, 70,000 cells per well were seeded into 24-well plates. Treatments were done in duplicates and apoptosis was detected by measuring cytoplasmic histone-associated DNA fragments using the death detection ELISA PLUS kit (Roche, Indianapolis, Ind.). The following ranges of growth factor concentrations were tested: bFGF 10-20 ng/ml, PlGF-1 50-1000 ng/ml, VEGF 10-50 ng/ml, VEGF-C 50-1000 ng/ml, VEGF-D 50-1000 ng/ml, VEGF-C156S 50-1000 ng/ml and VEGF-E 50-1000 ng/ml. Annexin-V-FLUOS (Roche, Indianapolis, Ind.) was used to detect phosphatidylserine on the apoptotic cells by fluorescence microscopy according to the instructions of the manufacturer. The simultaneous staining with propidium iodide (1 μg/ml) was used for discriminating possible necrotic cells.
Annexin-V staining of the HMVE cells was performed after 72 hours of culture in serum-free medium alone (BSA) or with stimulation of VEGF or VEGF-C. Simultaneous staining using antibodies against podoplanin was used to distinguish lymphatic and blood vascular endothelial cells. […]

VEGFR-2/EpoR = experiment: Ba/F3 bioassay, viability (MTT) of VEGFR-2/EpoR cells; conditions: FIG. 1B
Protocol: FIG. 1A-FIG. 1C. Analysis of the receptor-specificities of different VEGFs using the Ba/F3 bioassay. Measurement of the viability of Ba/F3 cells expressing the chimeric receptors VEGFR-1/EpoR (FIG. 1A), VEGFR-2/EpoR (FIG. 1B) or VEGFR-3/EpoR (FIG. 1C) in the presence of different VEGFs at indicated concentrations. Cell viability was determined using the MTT assay. Data represent the mean values from triplicate assays (mean±s.d.). FIG. 1D-FIG. 1G. Biosensor analysis of the interaction of VEGF-C (FIG. 1D, FIG. 1E) and VEGF-C156S (FIG. 1F, FIG. 1G) with VEGFR-3 (FIG. 1D, FIG. 1F) and VEGFR-2 (FIG. 1E, FIG. 1G). Chimeric receptor proteins were immobilized onto a carboxymethylated dextran surface. Growth factors were injected over the surface at a flow rate of 20 μl/min at the indicated concentrations. The sensorgrams shown have been subtracted with the corresponding signal obtained when the same sample was passed over a blank control channel.
Bioassay for VEGFR stimulation. […]
VEGF is an endothelial cell mitogen which has been also shown to protect endothelial cells from starvation and TNF-a induced apoptosis via activation of VEGFR-2 (Gerber et al, J. Biol. Chem., 273:30336-30343, 1998; Spyridopoulos et al., J. Mol. Cell. Cardiol., 29:1321-1330, 1997). […] The specificities of the growth factors used were determined using a cell survival bioassay. […]

Molecule	proliferation of isolated podoplanin positive cells [1]	Annexin-V positive cells / survival (HMVE cells)	survival of VEGFR-2/EpoR expressing cells (VEGFR-2/EpoR)
VEGF	most of the podoplanin positive cells proliferated readily	strongly decreased the number of cells displaying Annexin-V positivity	able to support the survival of the VEGFR-2/EpoR expressing cells
B1	–	increased the survival of mainly the lymphatic endothelial cells	did not affect the survival of these cells
